# Measured values from the supplement of paper PMC10307832.
# Key:
# Assay in all cases: relative viability (nuclei count vs DMSO), 5 days (fraction); higher = more cells survive
# [1] = tested on: COR-L 105
# Method in brief: (§1)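 Relative viability divides the nuclei count in treated wells by that in vehicle wells. Lung cancer cell lines were seeded in 1536-well plates, dosed by pin tool the next day, and fixed and stained after 5 days in one step with final 0.05% Triton X-100, 1% formaldehyde and 1 ug/ml Hoechst. Dosing was a single drug or a fixed anchor-drug dose plus five library-drug doses (not always all listed) in √10 steps, and values are medians of duplicate plates imaged at 4×.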
# [2] = tested on: COR-L23
# Method in brief: as §1
# [3] = tested on: HARA
# Method in brief: as §1
# [4] = tested on: HCC-15
# Method in brief: as §1
# [5] = tested on: HOP-62
# Method in brief: as §1
# [6] = tested on: NCI-H1355
# Method in brief: as §1
# [7] = tested on: NCI-H1734
# Method in brief: as §1
# [8] = tested on: NCI-H1755
# Method in brief: as §1
# [9] = tested on: NCI-H1792
# Method in brief: as §1
# [10] = tested on: NCI-H1993
# Method in brief: as §1
# [11] = tested on: NCI-H2009
# Method in brief: as §1
# [12] = tested on: NCI-H2170
# Method in brief: as §1
# [13] = tested on: NCI-H2228
# Method in brief: as §1
# [14] = tested on: NCI-H2347
# Method in brief: as §1
# [15] = tested on: NCI-H358
# Method in brief: as §1
# [16] = tested on: NCI-H647
# Method in brief: as §1
# [17] = tested on: NCI-H838
# Method in brief: as §1
# [18] = tested on: SK-MES-1
# Method in brief: as §1
# [19] = tested on: UMC-11
# Method in brief: as §1
structure (smiles),measurement,setting,value
COc1cc2nccc(Oc3ccc(NC(=O)Nc4cc(C)on4)c(Cl)c3)c2cc1OC [Tivozanib] + C[C@@H](Oc1cc(-c2cnn(C3CCNCC3)c2)cnc1N)c1c(Cl)ccc(F)c1Cl [Crizotinib] (partner 1 µM),relative viability,[1]; first compound 0.01581 µM,0.794
same,relative viability,[1]; first compound 0.05 µM,0.797
same,relative viability,[1]; first compound 0.1581 µM,0.775
same,relative viability,[1]; first compound 0.5 µM,0.701
same,relative viability,[2]; first compound 0.005 µM,0.622
same,relative viability,[2]; first compound 0.01581 µM,0.615
same,relative viability,[2]; first compound 0.05 µM,0.659
same,relative viability,[2]; first compound 0.1581 µM,0.643
same,relative viability,[2]; first compound 0.5 µM,0.543
same,relative viability,[3]; first compound 0.005 µM,0.976
same,relative viability,[3]; first compound 0.01581 µM,1
same,relative viability,[3]; first compound 0.05 µM,1.21
same,relative viability,[3]; first compound 0.1581 µM,1.09
same,relative viability,[3]; first compound 0.5 µM,0.974
same,relative viability,[4]; first compound 0.005 µM,0.811
same,relative viability,[4]; first compound 0.01581 µM,0.824
same,relative viability,[4]; first compound 0.05 µM,0.796
same,relative viability,[4]; first compound 0.1581 µM,0.79
same,relative viability,[4]; first compound 0.5 µM,0.811
same,relative viability,[5]; first compound 0.005 µM,0.557
same,relative viability,[5]; first compound 0.01581 µM,0.939
same,relative viability,[5]; first compound 0.05 µM,0.928
same,relative viability,[5]; first compound 0.1581 µM,0.853
same,relative viability,[5]; first compound 0.5 µM,0.919
same,relative viability,[6]; first compound 0.005 µM,1.03
same,relative viability,[6]; first compound 0.01581 µM,1.03
same,relative viability,[6]; first compound 0.05 µM,1.08
same,relative viability,[6]; first compound 0.5 µM,1.07
same,relative viability,[7]; first compound 0.005 µM,0.616
same,relative viability,[7]; first compound 0.01581 µM,0.63
same,relative viability,[7]; first compound 0.05 µM,0.682
same,relative viability,[7]; first compound 0.1581 µM,0.574
same,relative viability,[7]; first compound 0.5 µM,0.565
same,relative viability,[8]; first compound 0.005 µM,0.832
same,relative viability,[8]; first compound 0.01581 µM,0.845
same,relative viability,[8]; first compound 0.05 µM,0.937
same,relative viability,[8]; first compound 0.1581 µM,0.872
same,relative viability,[8]; first compound 0.5 µM,0.775
same,relative viability,[9]; first compound 0.005 µM,0.96
same,relative viability,[9]; first compound 0.01581 µM,1.01
same,relative viability,[9]; first compound 0.05 µM,1.07
same,relative viability,[9]; first compound 0.1581 µM,0.933
same,relative viability,[9]; first compound 0.5 µM,1.07
same,relative viability,[10]; first compound 0.005 µM,0.764
same,relative viability,[10]; first compound 0.01581 µM,0.852
same,relative viability,[10]; first compound 0.05 µM,0.926
same,relative viability,[10]; first compound 0.1581 µM,0.707
same,relative viability,[10]; first compound 0.5 µM,0.852
same,relative viability,[11]; first compound 0.005 µM,1.08
same,relative viability,[11]; first compound 0.01581 µM,1.02
same,relative viability,[11]; first compound 0.05 µM,1.1
same,relative viability,[11]; first compound 0.1581 µM,1.03
same,relative viability,[11]; first compound 0.5 µM,0.933
same,relative viability,[12]; first compound 0.005 µM,1.11
same,relative viability,[12]; first compound 0.01581 µM,1.21
same,relative viability,[12]; first compound 0.05 µM,1.24
same,relative viability,[12]; first compound 0.5 µM,1.17
same,relative viability,[13]; first compound 0.005 µM,0.439
same,relative viability,[13]; first compound 0.01581 µM,0.421
same,relative viability,[13]; first compound 0.05 µM,0.491
same,relative viability,[13]; first compound 0.1581 µM,0.453
same,relative viability,[13]; first compound 0.5 µM,0.605
same,relative viability,[14]; first compound 0.005 µM,0.578
same,relative viability,[14]; first compound 0.01581 µM,0.679
same,relative viability,[14]; first compound 0.05 µM,0.673
same,relative viability,[14]; first compound 0.1581 µM,0.685
same,relative viability,[14]; first compound 0.5 µM,0.605
same,relative viability,[15]; first compound 0.005 µM,0.594
same,relative viability,[15]; first compound 0.01581 µM,0.706
same,relative viability,[15]; first compound 0.05 µM,0.622
same,relative viability,[15]; first compound 0.1581 µM,0.604
same,relative viability,[15]; first compound 0.5 µM,0.462
same,relative viability,[16]; first compound 0.005 µM,0.925
same,relative viability,[16]; first compound 0.01581 µM,1.1
same,relative viability,[16]; first compound 0.05 µM,1.13
same,relative viability,[16]; first compound 0.1581 µM,1.05
same,relative viability,[16]; first compound 0.5 µM,0.991
same,relative viability,[17]; first compound 0.005 µM,0.886
same,relative viability,[17]; first compound 0.01581 µM,0.82
same,relative viability,[17]; first compound 0.05 µM,0.857
same,relative viability,[17]; first compound 0.5 µM,0.779
same,relative viability,[18]; first compound 0.005 µM,1.02
same,relative viability,[18]; first compound 0.01581 µM,1.03
same,relative viability,[18]; first compound 0.05 µM,1
same,relative viability,[18]; first compound 0.1581 µM,0.995
same,relative viability,[18]; first compound 0.5 µM,0.87
same,relative viability,[19]; first compound 0.005 µM,0.656
same,relative viability,[19]; first compound 0.01581 µM,0.603
same,relative viability,[19]; first compound 0.05 µM,0.649
same,relative viability,[19]; first compound 0.5 µM,0.536
